# Earlier results, collected in publication PMC7395068, “The evolution of strategies to minimise the risk of human drug-induced liver injury (DILI) in drug discovery and development” (Archives of Toxicology, 2020).
# Where two headings read alike, the source gives them in different places.
# Key:
# [1] = cited from earlier work
# [2] = system: THLE or HepG2 cells, isolated mitochondria, BSEP; settings: cited from earlier work
# [3] = cited from earlier work; remark: listed apart in the source
SMILES,"Partition Hybrid HRM Score ([2]; In vitro Assay, ref Aleo 2019)","Ro2 Hybrid HRM Score ([2]; In vitro Assay, ref Aleo 2019)",In vivo DILI ([3]; ref Aleo 2019),"DILI +VE (5-8), DILI -VE (-4) ([1]; ref Chen 2016)",DILI severity category ([1]; ref Chen 2016),also measured
Nc1ccc(C(=O)O)c(O)c1 [4-aminosalicylic acid],–,–,–,–,–,"DILI +VE (5-8), DILI -VE (-4) ([1]; in vivo): +VE; DILI severity category ([1]; in vivo): vMost-DILI-Concern; Partition Hybrid HRM Score [2]: -VE; Ro2 Hybrid HRM Score [2]: -VE"
CCOC(=O)Nc1ccc(NCc2ccc(F)cc2)nc1N [Flupirtine (Kv7 hepatotoxic@400)],+VE,+VE,+VE,–,–,–
O=C(Nc1cccc2c(=O)cc(-c3nnn[nH]3)oc12)c1ccc(OCCCCc2ccccc2)cc1 [Pranlukast],+VE,+VE,+VE,–,–,–
CCc1oc2ccccc2c1C(=O)c1ccc(O)cc1 [benzarone],+VE,+VE,+VE,+VE,vMost-DILI-Concern,–
CCc1oc2ccccc2c1C(=O)c1cc(I)c(O)c(I)c1 [benziodarone],+VE,+VE,+VE,+VE,vMost-DILI-Concern,–
CCOc1nc2cccc(C(=O)O)c2n1Cc1ccc(-c2ccccc2-c2nnn[nH]2)cc1 [candesartan],-VE,-VE,+VE,+VE,vLess-DILI-Concern,–
N.N.[Cl][Pt][Cl] [cisplatin],–,-VE,–,–,–,–
CN1CCC[C@@H]1CCO[C@](C)(c1ccccc1)c1ccc(Cl)cc1 [clemastine],-VE,-VE,-VE,-VE,vNo-DILI-Concern,In vivo DILI ([3]; […]): -VE
CN1C[C@H](C(=O)N[C@]2(C)O[C@@]3(O)[C@@H]4CCCN4C(=O)[C@H](Cc4ccccc4)N3C2=O)C[C@@H]2c3cccc4[nH]cc(c34)C[C@H]21 [dihydroergotamine],–,–,-VE,-VE,vNo-DILI-Concern,Partition Hybrid HRM Score [2]: -VE; Ro2 Hybrid HRM Score [2]: -VE
NC(N)=Nc1nc(CSCCN/C=N/S(=O)(=O)c2ccc(Br)cc2)cs1 [ebrotidine],+VE,+VE,+VE,+VE,vMost-DILI-Concern,–
COC(=O)CCc1ccc(OCC(O)CNC(C)C)cc1 (stereo not shown) [esmolol],+VE,-VE,-VE,-VE,vNo-DILI-Concern,–
C[C@]12CC[C@@H]3c4ccc(O)cc4CC[C@H]3[C@@H]1CC[C@@H]2O [estradiol],–,–,–,–,–,"DILI +VE (5-8), DILI -VE (-4) ([1]; in vivo): +VE; DILI severity category ([1]; in vivo): vLess-DILI-Concern; Partition Hybrid HRM Score [2]: -VE; Ro2 Hybrid HRM Score [2]: -VE"
C=C(CC)C(=O)c1ccc(OCC(=O)O)c(Cl)c1Cl [ethacrynic acid],–,–,–,–,–,"Partition Hybrid HRM Score, In vitro Assay ([2]; Partition hybrid, ref Aleo 2019): +VE; Ro2 Hybrid HRM Score, In vitro Assay ([2]; Rule of Two hybrid, ref Aleo 2019): +VE"
Cc1nc(-c2ccc(OCC(C)C)c(C#N)c2)sc1C(=O)O [febuxostat],+VE,+VE,+VE,+VE,vMost-DILI-Concern,–
O=C(COc1ccc(Cl)cc1)N1CCN(Cc2ccc3c(c2)OCO3)CC1 [fipexide],+VE,+VE,+VE,+VE,vMost-DILI-Concern,–
O=C(CCCN1CCC(O)(c2ccc(Cl)cc2)CC1)c1ccc(F)cc1 [haloperidol],-VE,-VE,–,–,–,–
CC(C)(C)NC(=O)[C@@H]1CN(Cc2cccnc2)CCN1C[C@@H](O)C[C@@H](Cc1ccccc1)C(=O)N[C@H]1c2ccccc2C[C@H]1O [indinavir],–,–,–,–,–,Partition Hybrid HRM Score [2]: +VE; Ro2 Hybrid HRM Score [2]: +VE
